Test results as given in article PMC10065799, “High-throughput profiling of sequence recognition by tyrosine kinases and SH2 domains using bacterial peptide display” (eLife, 2023).

Target: T1, c-Abl kinase domain (Mus musculus, UniProt P00520)
T1 sequence (P00520 242-493 limits assumed): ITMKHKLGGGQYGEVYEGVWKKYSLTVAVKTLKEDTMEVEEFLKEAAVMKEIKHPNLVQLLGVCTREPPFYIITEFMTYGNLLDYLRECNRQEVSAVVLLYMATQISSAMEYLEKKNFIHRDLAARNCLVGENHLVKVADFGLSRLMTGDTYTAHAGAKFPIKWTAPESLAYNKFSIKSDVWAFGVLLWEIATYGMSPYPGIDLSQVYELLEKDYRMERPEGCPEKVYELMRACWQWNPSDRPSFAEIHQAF
Test: pTyr-Var library bacterial peptide display kinase screen (enrichment scores)
Assay type: biochemical
Details: variant versus reference peptide

ATGLIYIGSHD [AASDH_Y870_T865A]
c-Abl difference (mean log2 variant - mean log2 reference): 0.7644
